Test results taken from US20100137266A1, “TREATMENT OF INSULIN RESISTANCE AND DISORDERS ASSOCIATED THEREWITH” (UNIVERSITETET I OSLO, priority 2006, published 2010).

Tests used:
LXRα = target: T1, LXRα (Homo sapiens, UniProt Q13133); conditions: Forman et al.; cited from earlier work
T1 construct: host or cells: CV-1 cells (fibroblasts)
T1 sequence (Q13133 1-447): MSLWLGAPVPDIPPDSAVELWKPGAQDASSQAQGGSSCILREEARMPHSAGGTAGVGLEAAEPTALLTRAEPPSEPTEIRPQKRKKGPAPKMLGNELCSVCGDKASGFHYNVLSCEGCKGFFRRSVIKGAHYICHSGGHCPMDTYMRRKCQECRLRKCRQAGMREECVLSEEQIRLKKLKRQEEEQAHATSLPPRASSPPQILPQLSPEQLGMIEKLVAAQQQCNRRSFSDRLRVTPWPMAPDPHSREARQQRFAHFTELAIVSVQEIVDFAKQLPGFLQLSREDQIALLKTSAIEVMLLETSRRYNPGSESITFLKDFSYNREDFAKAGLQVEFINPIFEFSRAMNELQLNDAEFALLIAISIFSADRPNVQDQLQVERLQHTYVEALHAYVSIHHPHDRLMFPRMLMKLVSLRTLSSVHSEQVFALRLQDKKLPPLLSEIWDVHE

human myotubes = experiment: Palmitate uptake and lipid distribution: TAG synthesis from [1-14C]palmitic acid in myotubes; type: cell-based
Protocol: FIG. 3. 22-hydroxycholesterols influence TAG synthesis from palmitic acid differently than T0901317. Human myoblasts were allowed to differentiate for 2 days, and then exposed to vehicle (0.1% DMSO), 1 μM T0901317, or 10 μM 22-S-hydroxycholesterol (22-S-HC) for 4 days. Differentiated myotubes were then incubated with [1-^14C]PA (0.5 μCi/ml, 0.1 mM) for 4 h before triacylglycerol (TAG) levels were determined. Results present means±SEM (n=4; independent muscle cell donors). *p<0.05 vs control, **p<0.05 vs all other treatments.
Human skeletal muscle cell cultures. A cell bank of satellite cells was established from muscle biopsy samples of the M. vastus lateralis of 6 healthy volunteers, age 25.7 years (±1.4), with BMI 21.6 (±1.0) and fasting glucose and insulin within normal range. The biopsies were obtained with informed consent and by approval of the National Committee for Research Ethics, Oslo, Norway. Muscle cell cultures free of fibroblasts were established by the method of Henry et al. (Diabetes, 44, 936-946, 1995), with minor modifications. Briefly, muscle tissue was dissected in Ham's F-10 media at 4° C., dissociated by three successive treatments with 0.05% trypsin/EDTA, and satellite cells were re-suspended in SkGM with 2% FCS and no added insulin. The cells were grown on culture wells coated with ECM gel (Apmis, 109, 726-734, 2001). At about 80% confluence, fusion of myoblasts into multinucleated myotubes was achieved by growth in DMEM with 2% FCS. All cells used were at passage 4 to 6. […]
Palmitate uptake and lipid distribution. […] The radioactivity in the cell fraction (20 μl) was quantified by liquid scintillation (Packard Tri-Carb 1900 TR) (Gaster et al, Diabetes, 53, 542-548, 2004). The protein content of each sample was determined (Bradford, Anal. Biochem., 72, 248-254, 1976), and triacylglycerol (TAG) was extracted (Gaster et al, supra). Briefly, the homogenized cell fraction (220 μl) was extracted, lipids separated by thin-layer chromatography and the radioactivity was quantified by liquid scintillation.

MyoD and myogenin = experiment: Expression of MyoD and myogenin and differentiation of myoblasts into myotubes; type: cell-based, human
Protocol: FIG. 1. Expression of MyoD (A) and myogenin (B) during differentiation of myoblasts. During the differentiation process, cells were harvested on day-2 until day 8. Some cell cultures were treated with ±1 μM T0901317 from day 2 until day 6. Equal amount of total RNA from each donor (n=4) were pooled, reversely transcribed and analyzed by Real-Time RT-PCR. Expression of MyoD and myogenin was normalized to GAPDH. RNA isolation and analysis of gene expression by RT-PCR. Myotubes were washed, trypsinized and pelleted before total RNA was isolated by RNeasy Mini kit (Qiagen Sciences, Oslo, Norway) or Agilent Total RNA Mini kit (Matrix, Oslo, Norway) according to the suppliers total RNA isolation protocol. […] DNA expression was determined by SYBR® Green (Applied Biosystems), and primers [36B4 (Acc#M17885), ACSL1 (Acc#NM-001995), ABCA1 (Acc#AF165281), CD36 (Acc#L06850), FAS (Acc#U26644), GAPDH (Acc#J104038/M33197, GLUT4 (Acc#M20747), LXRα (Acc#U22662), LXR (Acc#U07132), Myogenin (Acc#X17651), MyoD (Acc#BC064493), PPARα (Acc#L02932), PPARδ (Acc#BC002715), PPARγ (Acc#L40904), SCD-1 (Acc#AB032261), SREBP1c (Acc#U00968)], GLUT1, (Acc#03195), GLUT3 ([…]) were designed using Primer Express® (Applied Biosystems). Each target gene was quantified in triplicates and carried out in a 25 μl reaction volume according to the suppliers protocol. […]

CC(C)CC[C@@H](O)[C@@H](C)[C@H]1CC[C@H]2[C@@H]3CC=C4C[C@@H](O)CC[C@]4(C)[C@H]3CC[C@]12C [Example 22-R-HC, 22-R-hydroxycholesterol]
regulation of LXRα in fibroblasts (CV-1 cells) (LXRα): positively regulates

CC(C)CC[C@H](O)[C@@H](C)[C@H]1CC[C@H]2[C@@H]3CC=C4C[C@@H](O)CC[C@]4(C)[C@H]3CC[C@]12C [Example 22-S-HC, 22-S-hydroxycholesterol]
regulation of LXRα in fibroblasts (CV-1 cells) (LXRα): inactive | synthesis of TAG compared to T0901317 treatment (human myotubes; 10 μM for 4 days vs 1 μM T0901317): significantly reduced | reduction in incorporation of labeled palmitate into TAG (human myotubes; 10 μM for 4 days, compared to control myotubes): 50%

O=S(=O)(c1ccccc1)N(CC(F)(F)F)c1ccc(C(O)(C(F)(F)F)C(F)(F)F)cc1 [Example T0901317]
expression levels of MyoD and myogenin (MyoD and myogenin; 1 μM from day 2 until day 6): did not seem to interfere | differentiation of myoblasts into multinucleated myotubes by light microscopy (MyoD and myogenin; with and without LXR agonist treatment, data not shown): normal differentiation | TAG synthesis from labeled palmitate (human myotubes; 1 μM T0901317 for 4 days, [1-14C]PA 4 h, vs control): increased
